Laboratory results taken from paper PMC3751577, “Three-stage biochemical selection: cloning of prototype class IIS/IIC/IIG restriction endonuclease-methyltransferase TsoI from the thermophile Thermus scotoductus” (BMC Molecular Biology, 2013).

How the values were obtained:
[1] = target: T1, TsoI (Thermus scotoductus, UniProt T1RQY5); assay: DNA cleavage assay on lambda DNA, agarose gel; format: biochemical; conditions: activator, putative allosteric; weak stimulation of REase; 50 uM effector; 10 mM MgCl2, pH 7.5, 55°C, 30 min
T1 construct: gene tsoIRM; native (wt) full-length enzyme purified to homogeneity from T. scotoductus; monomer
T1 sequence (T1RQY5 1-1116): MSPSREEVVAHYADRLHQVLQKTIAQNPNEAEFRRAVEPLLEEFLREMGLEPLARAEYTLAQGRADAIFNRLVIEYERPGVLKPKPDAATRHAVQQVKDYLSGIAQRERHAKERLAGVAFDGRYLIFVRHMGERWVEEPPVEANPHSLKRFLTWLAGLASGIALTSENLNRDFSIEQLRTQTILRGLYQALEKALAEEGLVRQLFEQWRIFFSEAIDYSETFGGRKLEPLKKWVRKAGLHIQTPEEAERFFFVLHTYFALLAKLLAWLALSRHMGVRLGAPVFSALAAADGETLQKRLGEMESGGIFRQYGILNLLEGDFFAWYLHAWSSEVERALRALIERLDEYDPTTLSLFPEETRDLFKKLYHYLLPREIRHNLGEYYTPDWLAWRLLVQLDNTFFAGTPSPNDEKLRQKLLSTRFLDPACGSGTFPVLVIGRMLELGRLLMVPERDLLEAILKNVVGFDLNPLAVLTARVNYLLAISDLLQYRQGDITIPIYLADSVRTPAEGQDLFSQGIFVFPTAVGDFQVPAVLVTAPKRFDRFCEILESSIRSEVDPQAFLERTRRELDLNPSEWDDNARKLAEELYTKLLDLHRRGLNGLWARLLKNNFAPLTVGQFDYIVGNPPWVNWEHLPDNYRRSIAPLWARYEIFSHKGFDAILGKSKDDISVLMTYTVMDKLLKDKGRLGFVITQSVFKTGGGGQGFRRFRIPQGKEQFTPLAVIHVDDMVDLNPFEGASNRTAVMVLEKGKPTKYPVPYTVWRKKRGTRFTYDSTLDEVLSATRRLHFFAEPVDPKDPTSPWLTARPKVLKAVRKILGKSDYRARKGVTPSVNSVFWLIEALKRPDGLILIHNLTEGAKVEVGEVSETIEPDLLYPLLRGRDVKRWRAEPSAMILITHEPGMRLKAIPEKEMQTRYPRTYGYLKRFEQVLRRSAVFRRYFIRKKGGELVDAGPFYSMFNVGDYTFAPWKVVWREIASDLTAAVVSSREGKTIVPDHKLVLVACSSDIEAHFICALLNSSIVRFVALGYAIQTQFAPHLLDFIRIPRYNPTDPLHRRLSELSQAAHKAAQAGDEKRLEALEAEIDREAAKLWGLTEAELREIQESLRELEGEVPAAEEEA

[2] = target: T1, TsoI; assay: DNA cleavage assays on lambda DNA and single-site PCR substrate, agarose gel; format: biochemical; conditions: activator, putative allosteric; weak stimulation of REase; 50 uM effector; 10 mM MgCl2, pH 7.5, 55°C, 30 min or 16 h

| SMILES | DNA cleavage assay on lambda DNA, agarose gel [1] | DNA cleavage assays on lambda DNA and single-site PCR substrate, agarose gel [2] |
| --- | --- | --- |
| Nc1ncnc2c1ncn2[C@@H]1O[C@H](CSCC[C@H](N)C(=O)O)[C@@H](O)[C@H]1O [SAH] | activation of REase function by SAM, SIN and SAH is weak, but detectable |  |
| C[S+](CC[C@H](N)C(=O)O)C[C@H]1O[C@@H](n2cnc3c(N)ncnc32)[C@H](O)[C@@H]1O (stereo partly drawn) [SAM] |  | activation of REase function by SAM, SIN and SAH is weak, but detectable |
| Nc1ncnc2c1ncn2[C@@H]1O[C@H](C[C@@H](N)CC[C@H](N)C(=O)O)[C@@H](O)[C@H]1O [SIN] | activation of REase function by SAM, SIN and SAH is weak, but detectable |  |
